Like-named read-outs stand apart in the source and are kept apart here.
Experiments:
hGCGR = molecular target: T1, hGCGR (Homo sapiens, UniProt P47871); experiment: Functional cAMP formation (HTRF) in HEK-293 clonal cells expressing hGCGR, 0.1% bovine casein, without or with 1.0% human serum albumin; assay type: cell-based
T1 construct: expressed in transfected cells
Method in brief: (§1)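 Cells were stimulated with peptide for 30 min at 37° C, then intracellular cAMP was measured by competitive HTRF (665/620 nm ratio) and converted to nM using a cAMP standard curve. Relative EC50 and Emax came from four-parameter logistic fits of percent maximal response against peptide concentration.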

hGIPR = molecular target: T2, hGIPR (Homo sapiens, UniProt P48546); experiment: Functional cAMP formation (HTRF) in HEK-293 clonal cells expressing hGIPR, 0.1% bovine casein, without or with 1.0% human serum albumin; assay type: cell-based; settings: for EC50: geometric mean
T2 construct: expressed in transfected cells
T2 sequence (P48546 22-466): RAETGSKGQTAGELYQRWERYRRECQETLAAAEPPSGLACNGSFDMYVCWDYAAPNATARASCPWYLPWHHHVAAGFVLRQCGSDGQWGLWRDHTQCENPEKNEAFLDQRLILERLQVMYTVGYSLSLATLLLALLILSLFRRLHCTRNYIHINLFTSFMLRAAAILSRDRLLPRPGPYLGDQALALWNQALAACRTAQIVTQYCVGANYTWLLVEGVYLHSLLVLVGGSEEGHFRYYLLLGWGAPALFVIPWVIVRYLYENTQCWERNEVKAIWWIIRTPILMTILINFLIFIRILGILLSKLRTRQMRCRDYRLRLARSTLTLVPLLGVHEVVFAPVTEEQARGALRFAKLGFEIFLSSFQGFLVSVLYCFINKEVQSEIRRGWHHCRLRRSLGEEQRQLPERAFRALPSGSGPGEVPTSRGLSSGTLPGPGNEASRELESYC
Method in brief: as §1

[1] = molecular target: T3, human GLP-1 receptor (hGLP-1R) (Homo sapiens, UniProt P43220); experiment: [125I]-GLP-1 binding, SPA with membranes of HEK293 cells expressing hGLP-1R
T3 construct: expressed in transfected cells; crude membranes

hGLP-1R = hGLP-1R (Homo sapiens, UniProt P43220); experiment: Functional cAMP formation (HTRF) in HEK-293 clonal cells expressing hGLP-1R, 0.1% bovine casein, without or with 1.0% human serum albumin; assay type: cell-based; set-up: expressed in transfected cells; settings: for EC50: geometric mean; for Emax: HEK293, cAMP, percent of maximal response to GLP-1(7-36)NH2, read-out: hGLP-1R Emax, % ± SEM
Chain of hGLP-1R (P43220 24-463): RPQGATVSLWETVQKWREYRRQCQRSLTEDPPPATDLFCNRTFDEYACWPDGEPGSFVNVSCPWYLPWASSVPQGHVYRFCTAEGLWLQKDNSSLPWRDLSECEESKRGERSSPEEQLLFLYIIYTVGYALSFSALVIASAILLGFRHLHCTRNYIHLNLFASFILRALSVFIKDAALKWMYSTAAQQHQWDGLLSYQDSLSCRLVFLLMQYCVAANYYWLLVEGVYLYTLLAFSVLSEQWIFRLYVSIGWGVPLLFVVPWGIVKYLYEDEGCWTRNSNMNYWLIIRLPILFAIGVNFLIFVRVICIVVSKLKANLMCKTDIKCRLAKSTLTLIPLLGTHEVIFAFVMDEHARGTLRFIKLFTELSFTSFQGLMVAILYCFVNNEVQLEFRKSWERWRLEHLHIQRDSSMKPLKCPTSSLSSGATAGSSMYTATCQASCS
Method in brief: as §1

[2] = molecular target: T4, human GIP receptor (hGIPR) (Homo sapiens, UniProt P48546); experiment: [125I]-GIP binding, SPA with membranes of CHO cells expressing hGIPR
T4 construct: expressed in transfected cells; crude membranes
T4 sequence (P48546 22-466): T2 sequence (P48546 22-466)

[3] = human GLP-1R, geometric mean (SEM, n), read-out: Binding Affinity Ki, nM (SEM, n) hGLP-1R
[4] = human GIPR, geometric mean (SEM, n), read-out: Binding Affinity Ki, nM (SEM, n) hGIPR
[5] = cAMP, 37° C., 0.1% bovine casein (no human serum albumin), geometric mean, read-out: hGCGR EC50, nM (SEM, n)
[6] = cAMP, 37° C., 0.1% bovine casein and 1.0% human serum albumin, geometric mean (SEM, n), read-out: hGCGR EC50, nM (SEM, n)
[7] = cAMP, 37° C., 0.1% bovine casein (no human serum albumin), read-out: hGIPR EC50, nM (SEM, n)
[8] = 37° C., 0.1% bovine casein and 1.0% human serum albumin
[9] = 37° C., 0.1% bovine casein, arithmetic mean
[10] = cAMP, 37° C., 0.1% bovine casein (no human serum albumin), read-out: hGLP-1R EC50, nM (SEM, n)

T1 sequence (P47871 26-477): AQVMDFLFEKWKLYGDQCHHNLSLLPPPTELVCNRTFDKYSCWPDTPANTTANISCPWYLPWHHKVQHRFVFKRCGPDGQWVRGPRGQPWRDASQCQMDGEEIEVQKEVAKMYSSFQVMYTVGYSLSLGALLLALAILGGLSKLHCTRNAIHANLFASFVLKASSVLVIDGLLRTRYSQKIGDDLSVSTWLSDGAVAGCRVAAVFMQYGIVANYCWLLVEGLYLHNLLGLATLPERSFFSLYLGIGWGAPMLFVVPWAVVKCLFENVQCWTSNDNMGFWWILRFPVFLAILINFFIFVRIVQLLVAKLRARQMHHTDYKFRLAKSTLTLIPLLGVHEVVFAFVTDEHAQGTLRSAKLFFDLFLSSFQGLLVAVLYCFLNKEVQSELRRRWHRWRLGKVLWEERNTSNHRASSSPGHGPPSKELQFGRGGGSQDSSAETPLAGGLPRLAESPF

| SMILES | Ki [1, 3] | Ki [2, 4] | EC50 (hGCGR; [5]) | EC50 (hGCGR; [6]) | EC50 (hGIPR; [7]) | Emax (hGLP-1R; [8]) | Emax (hGLP-1R; [9]) | EC50 (hGLP-1R; [10]) | also measured |
| --- | --- | --- | --- | --- | --- | --- | --- | --- | --- |
| CCCCCCCCCCCCCCCC(=O)N[C@@H](CCC(=O)NCCOCCOCC(=O)NCCOCCOCC(=O)NCCCC[C@H](NC(=O)[C@H](CCCN)NC(=O)[C@H](CC(=O)O)NC(=O)[C@H](CC(C)C)NC(=O)[C@](C)(CC(C)C)NC(=O)[C@@H](NC(=O)[C@H](CO)NC(=O)[C@H](Cc1ccncc1)NC(=O)[C@H](CC(=O)O)NC(=O)[C@H](CO)NC(=O)[C@@H](NC(=O)[C@](C)(Cc1ccccc1F)NC(=O)[C@@H](NC(=O)CNC(=O)[C@H](CCC(=O)O)NC(=O)C(C)(C)NC(=O)[C@@H](N)Cc1ccc(O)cc1)[C@@H](C)O)[C@@H](C)O)[C@@H](C)CC)C(=O)N[C@@H](C)C(=O)N[C@@H](CCC(N)=O)C(=O)NC(C)(C)C(=O)N[C@@H](CCC(=O)O)C(=O)N[C@@H](Cc1ccccc1)C(=O)N[C@H](C(=O)N[C@H](CCC(=O)O)C(=O)N[C@@](C)(Cc1ccc(O)cc1)C(=O)N[C@@H](CC(C)C)C(=O)N[C@H](C(=O)N[C@@H](CCCCNC(=O)COCCOCCNC(=O)COCCOCCNC(=O)CC[C@H](NC(=O)CCCCCCCCCCCCCCC)C(=O)O)C(=O)NCC(=O)NCC(=O)N1CCC[C@H]1C(=O)N[C@@H](CO)C(=O)N[C@@H](CO)C(=O)NCC(=O)N[C@@H](C)C(=O)N1CCC[C@H]1C(=O)N1CCC[C@H]1C(=O)N1CCC[C@H]1C(=O)N[C@@H](CO)C(N)=O)[C@@H](C)CC)[C@@H](C)CC)C(=O)O [Example 23] | 0.251 nM | 0.0238 nM | – | – | – | – | – | – | EC50 (hGCGR; 0.1% bovine casein and 1.0% human serum albumin, 37° C., geometric mean, read-out: hGCGR EC50, nM (SEM, n)): > 9950 nM; EC50 (hGCGR; cAMP, incubated at 37° C., 0.1% bovine casein (no human serum albumin), geometric mean, read-out: hGCGR EC50, nM (SEM, n)): > 9950 nM; EC50 (hGIPR; 0.1% bovine casein and 1.0% human serum albumin, 37° C., read-out: hGIPR EC50, nM (SEM, n)): 0.623 nM; Emax (hGIPR; HEK293, 0.1% bovine casein and 1.0% human serum albumin, 37° C., percent of maximal response to GIP(1-42)NH2, read-out: hGIPR Emax, % ± SEM): 95.3 ± 0.863%; EC50 (hGLP-1R; 0.1% bovine casein and 1.0% human serum albumin, 37° C., read-out: hGLP-1R EC50, nM (SEM, n)): 1.98 nM |
| CC[C@H](C)[C@H](NC(=O)[C@H](CC(C)C)NC(=O)[C@](C)(Cc1ccc(O)cc1)NC(=O)[C@@H](CCC(=O)O)NC(=O)[C@@H](NC(=O)[C@H](Cc1ccccc1)NC(=O)[C@H](CCC(=O)O)NC(=O)C(C)(C)NC(=O)[C@H](CCC(N)=O)NC(=O)[C@H](C)NC(=O)[C@H](CCCCNC(=O)COCCOCCNC(=O)COCCOCCNC(=O)CC[C@H](NC(=O)CCCc1ccc(C(C)(C)C)cc1)C(=O)O)NC(=O)[C@H](CCCN)NC(=O)[C@H](CC(=O)O)NC(=O)[C@H](CC(C)C)NC(=O)[C@](C)(CC(C)C)NC(=O)[C@@H](NC(=O)[C@H](CO)NC(=O)[C@H](Cc1ccncc1)NC(=O)[C@H](CC(=O)O)NC(=O)[C@H](CO)NC(=O)[C@@H](NC(=O)[C@](C)(Cc1ccccc1F)NC(=O)[C@@H](NC(=O)CNC(=O)[C@H](CCC(=O)O)NC(=O)C(C)(C)NC(=O)[C@@H](N)Cc1ccc(O)cc1)[C@@H](C)O)[C@@H](C)O)[C@@H](C)CC)[C@@H](C)CC)C(=O)N[C@@H](CCC(=O)O)C(=O)NCC(=O)NCC(=O)N[C@@H](CCCCNC(=O)COCCOCCNC(=O)COCCOCCNC(=O)CC[C@H](NC(=O)CCCc1ccc(C(C)(C)C)cc1)C(=O)O)C(=O)N[C@@H](CO)C(=O)N[C@@H](CO)C(=O)NCC(=O)N[C@@H](C)C(=O)N1CCC[C@H]1C(=O)N1CCC[C@H]1C(=O)N1CCC[C@H]1C(=O)N[C@@H](CO)C(N)=O [Example 4] | – | – | – | – | – | – | – | – | EC50 (hGCGR; hGCGR EC50, nM (SEM, n), 0.1% bovine casein and 1.0% human serum albumin, 37° C., geometric mean): > 9950 nM; EC50 (hGCGR; hGCGR EC50, nM (SEM, n), cAMP, incubated at 37° C., 0.1% bovine casein (no human serum albumin), geometric mean): > 9950 nM; Emax (hGIPR; HEK293, read-out: hGIPR Emax, % ± SEM, 0.1% bovine casein and 1.0% human serum albumin, 37° C., percent of maximal response to GIP(1-42)NH2): 88.3 ± 2.17%; Emax (hGIPR; HEK293, read-out: hGIPR Emax, % ± SEM, percent of maximal response to GIP(1-42)NH2, 37° C., 0.1% bovine casein, arithmetic mean): 92.9 ± 0.381%; EC50 (hGIPR; hGIPR EC50, nM (SEM, n), 0.1% bovine casein and 1.0% human serum albumin, 37° C.): 0.0296 nM; Ki [1]: 0.413 nM; EC50 (hGLP-1R; hGLP-1R EC50, nM (SEM, n), 0.1% bovine casein and 1.0% human serum albumin, 37° C.): 0.584 nM; EC50 (hGLP-1R; hGLP-1R EC50, nM (SEM, n), cAMP, incubated at 37° C., 0.1% bovine casein (no human serum albumin)): 0.137 nM; Ki [2]: 0.0528 nM |
| CC[C@H](C)[C@H](NC(=O)[C@H](CC(C)C)NC(=O)[C@](C)(Cc1ccc(O)cc1)NC(=O)[C@H](CCCCNC(=O)COCCOCCNC(=O)COCCOCCNC(=O)CC[C@H](NC(=O)CCCCCCCCCCCCC(=O)O)C(=O)O)NC(=O)[C@@H](NC(=O)[C@H](Cc1ccccc1)NC(=O)[C@H](CCCN)NC(=O)C(C)(C)NC(=O)[C@H](CCC(N)=O)NC(=O)[C@H](C)NC(=O)[C@H](CCC(N)=O)NC(=O)[C@H](CCCN)NC(=O)[C@H](CC(=O)O)NC(=O)[C@H](CC(C)C)NC(=O)[C@](C)(CC(C)C)NC(=O)[C@@H](NC(=O)C(C)(C)NC(=O)[C@H](Cc1ccncc1)NC(=O)[C@H](CC(=O)O)NC(=O)[C@H](CO)NC(=O)[C@@H](NC(=O)[C@](C)(Cc1ccccc1F)NC(=O)[C@@H](NC(=O)CNC(=O)[C@H](CCC(=O)O)NC(=O)C(C)(C)NC(=O)[C@@H](N)Cc1ccc(O)cc1)[C@@H](C)O)[C@@H](C)O)[C@@H](C)CC)[C@@H](C)CC)C(=O)N[C@@H](CCCCNC(=O)COCCOCCNC(=O)COCCOCCNC(=O)CC[C@H](NC(=O)CCCCCCCCCCCCC(=O)O)C(=O)O)C(=O)NCC(=O)NCC(=O)N1CCC[C@H]1C(=O)N[C@@H](CO)C(=O)N[C@@H](CO)C(=O)NCC(=O)N[C@@H](C)C(=O)N1CCC[C@H]1C(=O)N1CCC[C@H]1C(=O)N1CCC[C@H]1C(=O)N[C@@H](CO)C(N)=O [Example 391] | 0.346 nM | 0.0279 nM | > 9950 nM | > 9950 nM | 0.0101 nM | 105% | 109% | 0.167 nM | Emax (hGIPR; HEK293, cAMP, 37° C., 0.1% bovine casein and 1.0% human serum albumin, percent of maximal response to GIP(1-42)NH2, read-out: hGIPR Emax, % ± SEM): 88.3% |
| CC[C@H](C)[C@H](NC(=O)[C@H](CC(C)C)NC(=O)[C@](C)(Cc1ccc(O)cc1)NC(=O)[C@H](CCCCNC(=O)CC[C@H](NC(=O)COCCOCCNC(=O)COCCOCCNC(=O)CC[C@H](NC(=O)CCCCCCCCCCCCC(=O)O)C(=O)O)C(=O)O)NC(=O)[C@@H](NC(=O)[C@H](Cc1ccccc1)NC(=O)[C@H](CCCN)NC(=O)C(C)(C)NC(=O)[C@H](CCC(N)=O)NC(=O)[C@H](C)NC(=O)[C@H](CCC(N)=O)NC(=O)[C@H](CCCN)NC(=O)[C@H](CC(=O)O)NC(=O)[C@H](CC(C)C)NC(=O)[C@](C)(CC(C)C)NC(=O)[C@@H](NC(=O)C(C)(C)NC(=O)[C@H](Cc1ccncc1)NC(=O)[C@H](CC(=O)O)NC(=O)[C@H](CO)NC(=O)[C@@H](NC(=O)[C@](C)(Cc1ccccc1F)NC(=O)[C@@H](NC(=O)CNC(=O)[C@H](CCC(=O)O)NC(=O)C(C)(C)NC(=O)[C@@H](N)Cc1ccc(O)cc1)[C@@H](C)O)[C@@H](C)O)[C@@H](C)CC)[C@@H](C)CC)C(=O)N[C@@H](CCCCNC(=O)CC[C@H](NC(=O)COCCOCCNC(=O)COCCOCCNC(=O)CC[C@H](NC(=O)CCCCCCCCCCCCC(=O)O)C(=O)O)C(=O)O)C(=O)NCC(=O)NCC(=O)N1CCC[C@H]1C(=O)N[C@@H](CO)C(=O)N[C@@H](CO)C(=O)NCC(=O)N[C@@H](C)C(=O)N1CCC[C@H]1C(=O)N1CCC[C@H]1C(=O)N1CCC[C@H]1C(=O)N[C@@H](CO)C(N)=O [Example 482] | 0.254 nM | 0.0277 nM | > 9950 nM | > 9950 nM | 0.0158 nM | 110% | 118% | 0.169 nM | – |

Source: patent publication US20230265151A1, “GIP/GLP1 CO-AGONIST COMPOUNDS” (priority 2020, published 2023)
